In PubChem BioAssay (NCI):
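96-well plates; 48 h exposure; 5 concentrations. Endpoints by linear interpolation between flanking doses. Not reached: highest tested concentration assigned. TGI is the concentration that stops growth completely.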

Tests used:
Assay in all cases: NCI anticancer screen, dose series, 48 h
[1] = tested on: MDA-N
[2] = tested on: CAKI-1 renal
[3] = tested on: CCRF-CEM leukemia
[4] = tested on: SNB-75 CNS
[5] = tested on: UACC-257 melanoma
[6] = tested on: SK-MEL-2 melanoma
[7] = tested on: SK-OV-3 ovarian
[8] = tested on: HS 578T breast
[9] = tested on: A498 renal
[10] = tested on: MOLT-4 leukemia

| Compound | TGI [1] [µM] | TGI [2] [µM] | TGI [3] [µM] | TGI [4] [µM] | TGI [5] [µM] | TGI [6] [µM] | TGI [7] [µM] | TGI [8] [µM] | TGI [9] [µM] | TGI [10] [µM] |
| --- | --- | --- | --- | --- | --- | --- | --- | --- | --- | --- |
| CC(C)(C)OC(=O)NCCCCC(NC(=O)c1ccccc1)C(N)=O (configuration not stated) | > 100 | > 100 | > 100 | > 100 | > 100 | > 100 | > 100 | > 100 | > 100 | > 100 |
| CCc1ccccc1NNc1cc(=O)[nH]c(=O)[nH]1 | 33.6 | 21.5 | 82.8 | 40.5 | 35.9 | 56.2 | 64.8 | 68.6 | 45.8 | 85.7 |
| NNC(=O)c1cc(=O)[nH][nH]1 | > 100 | > 100 | > 100 | > 100 | > 100 | > 100 | > 100 | > 100 | – | > 100 |
| CC1(C)CC(=O)C2=C(C1)OC1=C(CC(C)(C)CC1=O)C2c1ccccc1[N+](=O)[O-] (configuration not stated) | > 100 | > 100 | > 100 | > 100 | – | > 100 | > 100 | > 100 | > 100 | > 100 |
| CC(=O)N(O)c1ccc(-c2nc3ccccc3s2)cc1 | > 100 | > 100 | > 100 | > 100 | > 100 | > 100 | – | > 100 | > 100 | > 100 |
| C[Si](C)(c1ccccc1)[C@H]1CCCC=C1CCNC1c2ccccc2CCc2ccccc21 | > 100 | > 100 | > 100 | > 100 | > 100 | > 100 | > 100 | > 100 | > 100 | > 100 |
| C=CCOCn1cc(C)c(=O)[nH]c1=O | > 100 | > 100 | > 100 | > 100 | > 100 | – | > 100 | > 100 | > 100 | > 100 |
| CN(C)CCNC(=O)c1cccc2c1Oc1c(cccc1[N+](=O)[O-])O2 | 12.6 | 1.16 | 16.4 | 3.96 | 6.34 | 3.06 | – | 6.71 | 4.78 | 2.27 |
| CSc1c(C(=O)Nc2ccc(Cl)cc2)c(N)n(N)c(=O)c1C#N | > 100 | > 100 | > 100 | > 100 | > 100 | > 100 | > 100 | > 100 | > 100 | > 100 |
| CCN(CC)c1ccc(/C=C/C=C2C(=O)NC(=S)NC2=O)cc1 | > 61.6 | > 100 | > 100 | > 100 | > 100 | > 100 | > 100 | > 53.7 | > 100 | > 100 |
| CCn1c(SCC(=O)NNC(=S)NC)nc2ccccc2c1=O | > 100 | 44.2 | > 100 | > 100 | > 100 | > 100 | > 100 | > 100 | > 100 | > 100 |
| C/C1=C\C=C(\C(C)C)CC/C(C(=O)O)=C\CC/C(C)=C/CC1 | 82 | 88.3 | 41.8 | > 100 | 56.1 | 32.8 | 64 | > 100 | 34.1 | 43.2 |
| CC1CC(=O)N(N(C)C)C(C#N)(C#N)C1(C#N)C#N (configuration not stated) | 33.2 | 5.23 | 4.8 | > 51 | 29.8 | 59.3 | > 64.9 | 59.7 | 34.1 | 5.04 |
| CCOC(=O)C1=COC(C)(CCc2ccccc2)CC1=O (configuration not stated) | > 100 | > 100 | – | > 100 | > 100 | > 100 | > 100 | > 100 | > 100 | > 100 |
| CC(=N\N)/C(C)=N/N=C(C)/C(C)=N/N=C(C)/C(C)=N/N | > 100 | > 100 | > 100 | > 100 | > 100 | > 100 | > 100 | > 100 | > 100 | > 100 |
| CN(C)c1cccc(NC2=NCCO2)c1 | 32.8 | > 100 | > 100 | > 100 | > 100 | 48.7 | – | > 100 | > 100 | > 100 |
| Fc1cccc(F)c1C1SCc2nc3ccc(Cl)cc3n21 (configuration not stated) | > 100 | > 100 | > 100 | > 100 | > 100 | > 100 | > 100 | > 100 | – | > 100 |
| O=C1C(CN2CCOCC2)CCCC1CN1CCOCC1 (configuration not stated) | 16.1 | 1.57 | 4.03 | 29.9 | 5.72 | 16.3 | 51.8 | 75.9 | 42.3 | 2.33 |
| COC(=O)c1ccc(Nc2nc3nc[nH]c3c(=O)[nH]2)cc1 | > 100 | > 100 | > 100 | > 100 | > 100 | > 100 | > 100 | > 100 | > 100 | > 100 |
| Cc1ccc2c(c1)C(=O)C(C1OC(=O)c3ccccc31)C2 (configuration not stated) | > 100 | > 100 | > 100 | > 100 | > 100 | > 100 | > 100 | > 100 | > 100 | > 100 |
